Measured values from patent publication EP0380554B1, “VASOACTIVE PEPTIDES” (Ferring AB, priority 1987, dated 1993).

System: anaesthetised Sprague Dawley rats
Test: Blood pressure test (4-point test against the standard AVP)
Assay type: in vivo
Conditions: result in words; for potency in respect of blood pressure increase: maximal blood pressure increase after intravenous injections, rats previously treated with dibenamine, related to standard AVP, compared with known derivatives 2 and 3; for specificity (ratio of potency blood pressure/potency antidiuresis, BP/AD): ratio of blood pressure potency to antidiuretic potency, compared with known compounds 1, 2 and 3; for length of the effect (index of persistence, I.P.): duration of the blood pressure effect in relation to standard AVP, compared with known substances 1, 2 and 3
Text: Vasotocin derivatives according to the invention have been tested for potency of both blood pressure and antidiuretic activity in a so-called 4-point test, i.e. the activity of the test substances has been related to a standard preparation (AVP = arginine-vasopressin), and the effects of two dose levels for each substance have been analysed. In addition, two known pressor-specific analogs (VT derivatives) have been tested for a comparison, namely 1-mpa-2-Phe-8-Orn-VT (mpa = 3-mercaptopropionyl) (Huguenin, R.L., Boissonnas, R.A., 1966. Helv. Chim. Acta, 49, 711), and 2-Phe-8-Orn-VT (SE-332993, Sandoz).
Blood pressure tests were carried out on anaesthetised Sprague Dawley rats (about 250 g), previously treated with dibenamine (Dekanski, J., 1952. Br. J. Pharmacol. 7, 567). Maximal blood pressure increase after intravenous injections of peptide was used as a measure of the effect, expressed as intensity.
In addition to potency determination based on effect intensity, a measure of the length of the effect has been stated (index of persistence (I.P.), Pli ? ka, V., 1966. Arzheim. Forsch. 16, 886). This dimensionless factor is a measure of the effect duration of the respective analog in relation to the standard AVP.
In these two tests, a comparison was made between the effects of the respective derivative and the effect of a standard preparation, AVP, and potency was determined with the aid of a 4-point test and is indicated in international units per milligram (IU/mg) (Stürmer, E., i: Handbook of Experimental Pharmacology, 1966, Vol 23, pp 130-189).

Substance	potency in respect of blood pressure increase	specificity (ratio of potency blood pressure/potency antidiuresis, BP/AD)	length of the effect (index of persistence, I.P.)
1-Hmp-2-Phe-8-Dab-VT [compound 5]	very high potency	equivalent or higher specificity	–
1-Hmp-2-Phe-8-Orn(Ala)-VT [compound 6]	surprisingly high blood pressure potency	adequate specificity	considerably prolonged effect
1-Hmp-2-Phe-8-Orn-VT [compound 4]	very high potency	equivalent or higher specificity	–
Gly^o-1-Hmp-2-Phe-8-Orn-VT [compound 7]	surprisingly high blood pressure potency	adequate specificity	considerably prolonged effect
